Values quoted from earlier work in patent publication US20250041332A1, “SYSTEMIC INJECTION OF SUPERHEATED PERFLUOROCARBON EMULSION TO IMPROVE VENTILATION AND REDUCE VENTILATOR-INDUCED LUNG INJURY” (THE BOARD OF REGENTS OF THE UNIVERSITY OF TEXAS SYSTEM, priority 2021, published 2025).
Where two headings read alike, the source gives them in different places. Values belong to the compound of their own block, whether it stands above or below them.

Legend:
[1] = intravenous

Time in which half the dose is recovered from the exhaled gas [1]: 3 to 12 days
Structure (SMILES): FC(F)(F)C(F)(F)C(F)(F)C(F)(F)C(F)(F)C(F)(F)C(F)(F)C(F)(F)Br [PFOB, perfluorooctyl bromide]

Vapor pressure (at 25° C.): about 330.3 kPa | Vapor pressure (temperature not given): approximately 330 kPa
Structure (SMILES): FC(F)(F)C(F)(F)C(F)(F)C(F)(F)F [perfluorobutane]

Vapor pressure (at 25° C.): about 83.99 kPa
Structure (SMILES): FC(F)(F)C(F)(F)C(F)(F)C(F)(F)C(F)(F)F [perfluoropentane]

Vapor pressure (at 21.1° C.): about 792 kPa
Structure (SMILES): FC(F)(F)C(F)(F)C(F)(F)F [perfluoropropane]
